How the values were obtained:
Test in all cases: biochemical
Set-up in all cases: Thermo Fisher in vitro kinase panel, per cent inhibition of kinase activity at 10 uM
AMPK A2/B1/G1 = molecular target: T1, AMPK A2/B1/G1 (Homo sapiens, UniProt P54646)
T1 construct: gene PRKAA2
Procedure: (§1) Kinase profiling of SMER28 and analogs SMER28 and analogs were tested at 10 µM in a panel of 123 kinases at ThermoFisher Scientific. Follow-up of selected kinases for SMER28 and analogs was also performed at ThermoFisher Scientific. Data are shown in Supplementary Data 2 and 3. […] An inhibition of PIK3C could induce autophagy, mediated by signaling through the AKT/mTOR axis[45].

BLK = BLK (Homo sapiens, UniProt P51451)
Procedure: as §1

CAMK1 (CaMK1) = CAMK1 (CaMK1) (Homo sapiens, UniProt Q14012)
Procedure: as §1

EGFR (ErbB1) = EGFR (ErbB1) (Homo sapiens, UniProt P00533)
Procedure: as §1

ERBB4 (HER4) = ERBB4 (HER4) (Homo sapiens, UniProt Q15303)
Procedure: as §1

FGFR1 = FGFR1 (Homo sapiens, UniProt P11362)
Procedure: as §1

FGFR2 = FGFR2 (Homo sapiens, UniProt P21802)
Procedure: as §1

FGFR3 = FGFR3 (Homo sapiens, UniProt P22607)
Procedure: as §1

IGF1R = IGF1R (Homo sapiens, UniProt P08069)
Procedure: as §1

INSR = INSR (Homo sapiens, UniProt P06213)
Procedure: as §1

KDR (VEGFR2) = KDR (VEGFR2) (Homo sapiens, UniProt P35968)
Procedure: as §1

LCK = LCK (Homo sapiens, UniProt P06239)
Procedure: as §1

MAPK1 (ERK2) = MAPK1 (ERK2) (Homo sapiens, UniProt P28482)
Procedure: as §1

MKNK2 (MNK2) = MKNK2 (MNK2) (Homo sapiens, UniProt Q9HBH9)
Procedure: as §1

MST1R (RON) = MST1R (RON) (Homo sapiens, UniProt Q04912)
Procedure: as §1

MYLK (MLCK) = MYLK (MLCK) (Homo sapiens, UniProt Q15746)
Procedure: as §1

NTRK1 (TRKA) = NTRK1 (TRKA) (Homo sapiens, UniProt P04629)
Procedure: as §1

PAK1 = PAK1 (Homo sapiens, UniProt Q13153)
Procedure: as §1

PDK1 = molecular target: T2, PDK1 (Homo sapiens, UniProt O15530)
T2 construct: gene PDPK1
Procedure: as §1

PIK3CG (p110 gamma) = PIK3CG (p110 gamma) (Homo sapiens, UniProt P48736)
Procedure: as §1

PLK1 = PLK1 (Homo sapiens, UniProt P53350)
Procedure: as §1

PRKCQ (PKC theta) = PRKCQ (PKC theta) (Homo sapiens, UniProt Q04759)
Procedure: as §1

PRKG1 = PRKG1 (Homo sapiens, UniProt Q13976)
Procedure: as §1

ROCK1 = ROCK1 (Homo sapiens, UniProt Q13464)
Procedure: as §1

ROS1 = ROS1 (Homo sapiens, UniProt P08922)
Procedure: as §1

RPS6KA1 (RSK1) = RPS6KA1 (RSK1) (Homo sapiens, UniProt Q15418)
Procedure: as §1

FGFR2, sequence (P21802 whole entry): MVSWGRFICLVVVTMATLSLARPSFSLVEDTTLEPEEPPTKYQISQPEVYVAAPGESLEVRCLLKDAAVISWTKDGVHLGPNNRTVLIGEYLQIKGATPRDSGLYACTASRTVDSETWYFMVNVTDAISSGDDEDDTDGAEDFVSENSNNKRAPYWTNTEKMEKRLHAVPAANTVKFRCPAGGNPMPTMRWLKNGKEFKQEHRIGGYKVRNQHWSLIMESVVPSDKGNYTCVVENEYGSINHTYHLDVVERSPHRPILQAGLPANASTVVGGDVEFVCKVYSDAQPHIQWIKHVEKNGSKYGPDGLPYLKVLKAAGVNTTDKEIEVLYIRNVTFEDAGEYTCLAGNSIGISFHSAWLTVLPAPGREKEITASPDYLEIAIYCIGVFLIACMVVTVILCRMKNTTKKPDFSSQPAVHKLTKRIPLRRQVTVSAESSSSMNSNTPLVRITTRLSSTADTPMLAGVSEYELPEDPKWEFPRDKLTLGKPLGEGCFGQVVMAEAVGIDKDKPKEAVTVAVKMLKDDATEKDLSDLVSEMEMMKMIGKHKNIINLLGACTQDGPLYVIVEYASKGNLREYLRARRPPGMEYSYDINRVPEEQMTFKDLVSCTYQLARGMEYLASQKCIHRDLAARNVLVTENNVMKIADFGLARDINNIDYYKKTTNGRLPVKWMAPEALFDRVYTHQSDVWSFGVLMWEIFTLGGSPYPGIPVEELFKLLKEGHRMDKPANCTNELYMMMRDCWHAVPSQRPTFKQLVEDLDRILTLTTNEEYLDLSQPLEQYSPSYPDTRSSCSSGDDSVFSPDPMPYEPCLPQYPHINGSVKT
IGF1R, sequence (P08069 whole entry): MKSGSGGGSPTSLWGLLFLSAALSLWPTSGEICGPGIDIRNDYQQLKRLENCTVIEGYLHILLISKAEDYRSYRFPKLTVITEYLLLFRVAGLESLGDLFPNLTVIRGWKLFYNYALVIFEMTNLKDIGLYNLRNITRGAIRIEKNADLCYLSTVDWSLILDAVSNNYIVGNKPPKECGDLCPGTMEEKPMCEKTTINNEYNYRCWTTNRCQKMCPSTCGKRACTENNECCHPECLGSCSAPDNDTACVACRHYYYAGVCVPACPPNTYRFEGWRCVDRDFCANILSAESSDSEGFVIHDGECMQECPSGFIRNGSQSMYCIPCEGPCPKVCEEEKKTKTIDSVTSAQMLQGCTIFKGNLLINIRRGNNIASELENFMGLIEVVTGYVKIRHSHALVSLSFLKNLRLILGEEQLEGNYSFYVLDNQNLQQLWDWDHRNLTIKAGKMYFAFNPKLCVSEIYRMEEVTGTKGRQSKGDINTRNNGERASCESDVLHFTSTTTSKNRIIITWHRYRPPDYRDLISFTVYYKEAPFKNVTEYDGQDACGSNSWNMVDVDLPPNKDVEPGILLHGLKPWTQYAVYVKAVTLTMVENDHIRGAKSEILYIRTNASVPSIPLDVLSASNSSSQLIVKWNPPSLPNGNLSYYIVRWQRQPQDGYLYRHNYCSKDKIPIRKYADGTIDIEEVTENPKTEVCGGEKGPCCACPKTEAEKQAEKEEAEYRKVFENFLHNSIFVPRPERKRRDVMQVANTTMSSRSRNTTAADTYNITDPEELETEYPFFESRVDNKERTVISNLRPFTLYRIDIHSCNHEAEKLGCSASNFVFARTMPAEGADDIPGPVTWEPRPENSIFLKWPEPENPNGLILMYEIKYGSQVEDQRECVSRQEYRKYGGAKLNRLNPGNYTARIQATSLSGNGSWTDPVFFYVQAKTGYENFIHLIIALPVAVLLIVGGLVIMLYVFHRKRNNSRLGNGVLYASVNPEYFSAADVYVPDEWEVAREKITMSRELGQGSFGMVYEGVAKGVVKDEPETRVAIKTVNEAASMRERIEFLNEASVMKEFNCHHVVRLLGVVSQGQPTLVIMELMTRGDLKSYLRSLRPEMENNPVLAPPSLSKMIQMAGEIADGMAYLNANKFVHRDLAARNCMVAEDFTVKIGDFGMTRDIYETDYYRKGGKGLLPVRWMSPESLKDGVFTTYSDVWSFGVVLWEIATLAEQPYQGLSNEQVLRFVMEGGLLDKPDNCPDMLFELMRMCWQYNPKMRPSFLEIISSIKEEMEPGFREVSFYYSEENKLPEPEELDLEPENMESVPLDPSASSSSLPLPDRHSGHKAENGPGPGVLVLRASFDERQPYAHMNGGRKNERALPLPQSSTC
ROS1, sequence (P08922 whole entry): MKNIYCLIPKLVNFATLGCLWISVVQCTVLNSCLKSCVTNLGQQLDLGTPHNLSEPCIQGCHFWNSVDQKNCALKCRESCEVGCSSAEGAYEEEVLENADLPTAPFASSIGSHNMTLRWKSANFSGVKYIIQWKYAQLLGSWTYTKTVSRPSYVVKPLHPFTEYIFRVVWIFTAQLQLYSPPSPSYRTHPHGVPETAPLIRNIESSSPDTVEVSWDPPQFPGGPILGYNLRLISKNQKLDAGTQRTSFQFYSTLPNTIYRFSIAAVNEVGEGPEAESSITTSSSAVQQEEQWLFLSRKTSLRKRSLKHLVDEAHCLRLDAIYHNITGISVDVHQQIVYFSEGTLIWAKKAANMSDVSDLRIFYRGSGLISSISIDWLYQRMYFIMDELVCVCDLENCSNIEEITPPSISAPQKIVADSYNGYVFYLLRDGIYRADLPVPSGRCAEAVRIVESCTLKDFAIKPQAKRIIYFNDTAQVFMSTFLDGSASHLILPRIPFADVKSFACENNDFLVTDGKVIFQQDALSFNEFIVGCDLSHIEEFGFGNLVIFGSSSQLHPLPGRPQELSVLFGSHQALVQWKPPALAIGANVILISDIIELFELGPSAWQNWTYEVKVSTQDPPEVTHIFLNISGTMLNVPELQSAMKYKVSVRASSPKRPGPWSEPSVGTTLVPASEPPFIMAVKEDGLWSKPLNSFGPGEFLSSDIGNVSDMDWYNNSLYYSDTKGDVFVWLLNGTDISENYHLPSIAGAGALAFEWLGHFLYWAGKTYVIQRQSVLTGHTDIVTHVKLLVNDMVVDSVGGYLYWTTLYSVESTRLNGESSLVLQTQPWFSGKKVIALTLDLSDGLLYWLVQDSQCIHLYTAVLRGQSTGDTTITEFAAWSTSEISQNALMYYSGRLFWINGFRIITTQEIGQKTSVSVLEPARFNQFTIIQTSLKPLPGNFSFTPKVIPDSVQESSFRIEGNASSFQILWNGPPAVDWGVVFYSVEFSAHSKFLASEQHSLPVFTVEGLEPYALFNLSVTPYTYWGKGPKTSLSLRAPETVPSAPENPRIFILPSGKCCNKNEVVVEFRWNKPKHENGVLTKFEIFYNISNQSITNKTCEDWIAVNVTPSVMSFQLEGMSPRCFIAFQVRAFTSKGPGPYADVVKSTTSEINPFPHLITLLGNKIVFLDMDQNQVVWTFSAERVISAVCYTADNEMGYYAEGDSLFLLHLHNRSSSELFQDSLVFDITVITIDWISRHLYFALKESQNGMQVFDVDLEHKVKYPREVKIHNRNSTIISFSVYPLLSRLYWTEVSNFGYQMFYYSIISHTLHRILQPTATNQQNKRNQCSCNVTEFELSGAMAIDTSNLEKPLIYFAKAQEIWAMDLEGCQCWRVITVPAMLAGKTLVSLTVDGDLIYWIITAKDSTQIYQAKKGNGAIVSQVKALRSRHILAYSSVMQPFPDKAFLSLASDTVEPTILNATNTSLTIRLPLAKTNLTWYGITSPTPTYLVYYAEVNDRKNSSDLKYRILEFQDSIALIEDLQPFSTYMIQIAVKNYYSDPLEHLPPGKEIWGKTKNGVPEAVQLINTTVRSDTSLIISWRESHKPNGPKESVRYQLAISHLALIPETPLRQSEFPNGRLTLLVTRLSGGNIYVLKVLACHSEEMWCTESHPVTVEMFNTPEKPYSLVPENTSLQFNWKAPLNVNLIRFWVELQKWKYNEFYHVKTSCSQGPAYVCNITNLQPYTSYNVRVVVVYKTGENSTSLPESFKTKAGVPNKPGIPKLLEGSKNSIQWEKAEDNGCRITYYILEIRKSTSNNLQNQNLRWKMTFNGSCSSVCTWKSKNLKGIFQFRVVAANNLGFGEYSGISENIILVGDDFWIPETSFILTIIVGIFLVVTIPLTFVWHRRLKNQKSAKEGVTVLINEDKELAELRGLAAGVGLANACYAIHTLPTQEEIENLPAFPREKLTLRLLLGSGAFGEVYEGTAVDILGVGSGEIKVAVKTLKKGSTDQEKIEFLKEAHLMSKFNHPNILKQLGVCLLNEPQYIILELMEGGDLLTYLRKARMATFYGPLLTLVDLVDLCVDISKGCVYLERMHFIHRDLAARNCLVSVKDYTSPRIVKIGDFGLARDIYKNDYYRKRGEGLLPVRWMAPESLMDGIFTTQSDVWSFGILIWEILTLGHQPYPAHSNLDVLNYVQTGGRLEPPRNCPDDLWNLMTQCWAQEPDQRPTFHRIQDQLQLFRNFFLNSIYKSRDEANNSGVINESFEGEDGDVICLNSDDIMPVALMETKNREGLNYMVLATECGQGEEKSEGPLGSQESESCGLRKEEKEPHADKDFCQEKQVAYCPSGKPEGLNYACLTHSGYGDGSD
PAK1, sequence (Q13153 whole entry): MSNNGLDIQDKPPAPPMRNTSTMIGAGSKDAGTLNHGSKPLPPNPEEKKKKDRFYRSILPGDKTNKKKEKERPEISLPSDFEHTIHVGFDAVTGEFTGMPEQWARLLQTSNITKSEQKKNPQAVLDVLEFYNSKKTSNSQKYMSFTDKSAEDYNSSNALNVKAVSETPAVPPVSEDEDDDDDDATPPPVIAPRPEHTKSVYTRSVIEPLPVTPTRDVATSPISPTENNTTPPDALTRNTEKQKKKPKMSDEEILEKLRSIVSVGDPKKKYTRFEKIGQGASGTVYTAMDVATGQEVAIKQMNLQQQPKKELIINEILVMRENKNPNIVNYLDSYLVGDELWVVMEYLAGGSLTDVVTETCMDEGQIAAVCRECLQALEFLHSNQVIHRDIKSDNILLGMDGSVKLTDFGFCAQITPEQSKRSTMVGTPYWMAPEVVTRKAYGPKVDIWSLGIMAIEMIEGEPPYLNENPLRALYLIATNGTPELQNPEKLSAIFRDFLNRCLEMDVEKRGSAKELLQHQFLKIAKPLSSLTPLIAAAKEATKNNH

Structure (SMILES): C=CCNc1ncnc2ccc(Br)cc12 [SMER28]
- inhibition at 10 µM (AMPK A2/B1/G1): 12%
- inhibition at 10 µM (BLK): 4%
- inhibition at 10 µM (CAMK1 (CaMK1)): 13%
- inhibition at 10 µM (EGFR (ErbB1)): 12%
- inhibition at 10 µM (ERBB4 (HER4)): 10%
- inhibition at 10 µM (FGFR1): 27%
- inhibition at 10 µM (FGFR2): 19%
- inhibition at 10 µM (FGFR3): -7%
- inhibition at 10 µM (IGF1R): 12%
- inhibition at 10 µM (INSR): -1%
- inhibition at 10 µM (KDR (VEGFR2)): 13%
- inhibition at 10 µM (LCK): 19%
- inhibition at 10 µM (MAPK1 (ERK2)): -2%
- inhibition at 10 µM (MKNK2 (MNK2)): 32%
- inhibition at 10 µM (MST1R (RON)): -4%
- inhibition at 10 µM (MYLK (MLCK)): 12%
- inhibition at 10 µM (NTRK1 (TRKA)): 33%
- inhibition at 10 µM (PAK1): 0%
- inhibition at 10 µM (PDK1): -7%
- inhibition at 10 µM (PIK3CG (p110 gamma)): 65%
- inhibition at 10 µM (PLK1): 11%
- inhibition at 10 µM (PRKCQ (PKC theta)): 0%
- inhibition at 10 µM (PRKG1): 6%
- inhibition at 10 µM (ROCK1): -13%
- inhibition at 10 µM (ROS1): 26%
- inhibition at 10 µM (RPS6KA1 (RSK1)): 21%
